Source: US10183030B2, “17α,21-diesters of cortexolone for use in the treatment of tumors” (COSMO TECHNOLOGIES LTD., priority 2014, dated 2019)
Read-outs that look alike come from different tables or passages of the source.

Experiments:
[1] = system: stimulated PBMC (actively dividing cells); experiment: IC50 on stimulated PBMC (intrinsic toxicity); assay type: cell-based; details: Homo sapiens, stimulated PBMC
Protocol: The IC50 in PBMC were tested in 2 different activation status: • stimulated—actively dividing cells • resting—quiescent, non-dividing cells
IC50 of the compounds was determined on fresh cells isolated from human blood (PBMC).

[2] = system: PSA secretion from LNCaP prostate cancer cells; experiment: PSA secretion from LNCaP cells (Elisa); assay type: cell-based; details: Homo sapiens, 48 hours, read-out: IC50, inhibition of PSA secretion
Protocol: Prostate-specific antigen, or PSA, is a protein produced by cells of the prostate gland. The PSA test measures the level of PSA in a person's blood. The blood level of PSA is often elevated in men with prostate cancer and it used as surrogate marker to test prostate cancer progression in human population. After the observation that CB-03-10 was able to inhibit in vivo the growth of prostate cancer, the capability of the compound to inhibit in vitro PSA secretion from cancer cells was determined. […] After 48 hours incubation with test compounds, supernatants were harvested and tested with an Elisa assay for PSA and same cells were lysed for cell viability assessment.

[3] = system: MiaPaca2 (AR low) pancreatic cancer cells; experiment: ATP-dependent proliferation/viability assay, MiaPaca2; assay type: cell-based; details: Homo sapiens, read-out: IC50
Protocol: The experimental method consisted of: • 1. […] After 24 hours, 10 nM DHT (dihydrotestosterone) with or without anti-androgen compounds, or DMSO vehicle (negative control) was added to the cultures. • 3.
(§1) Each compounds was titrated from 3 uM to 200 uM.

[4] = system: MiaPaca-2 xenograft tumor; experiment: MiaPaca2 human pancreatic tumor xenograft in nude mice, subcutaneous treatment; assay type: in vivo, mouse
Protocol: The test was carried out comparing the anti-tumor activity of cortexolone 17α-benzoate at two different dosages (8.0 mg/kg, corresponding approximately at 230 μM, and 40 mg/kg, corresponding approximately at 1150 μM), versus the vehicle (i.e. 0.4% (v/v) tween 80 and 0.5% (w/v) carboxymethylcellulose in normal saline) and versus the comparator Cyproterone Acetate at two different dosages (7.4 mg/kg and 37 mg/kg).
1×10^6 MiaPaca-2 cells suspended in matrigel were subcutaneously injected into 6 week old athymic nude mice.
The treatment with the tested compounds, with the vehicle and with the comparative compound, was initiated after the tumor volume has reached 50 mm^3 after transplantation. All compounds were injected 100 μL/mouse subcutaneously of low dose solution (approximately 230 μM) or 100 μL/mouse of high dose solution (approximately 1150 μM) of cortexolone 17α-benzoate, vehicle and cyproterone acetate, respectively. Compounds and controls were administered subcutaneously daily for 28 days.
Tumors were measured every 4 days with a digital caliper.
The results are plotted in FIG. 1 as average change in tumor volume relative to the start of treatment. Tumor volume was calculated according to the formula 0.5236(r1)^2(r2) where r1<r2.
The test was carried out comparing the anti-tumor activity of cortexolone 17α-valerate-21-propionate (CB-03-10) at two different dosages (approximately 8.6 mg/kg and 43 mg/kg) versus the vehicle (i.e. 0.4% (v/v) tween 80 and 0.5% (w/v) carboxymethylcellulose in normal saline) and versus the comparator Cyproterone Acetate at two different dosages (7.4 mg/kg and 37 mg/kg).
The treatment with the tested compound, with the vehicle and with the comparative compound was initiated after the tumor has reached a volume of 50 mm^3 after implantation, injecting subcutaneously 100 μL/mouse of low dose solution (approximately 230 μM) or 100 μL/mouse of high dose solution (approximately 1150 μM) of cortexolone 17α-valerate-21-propionate (CB-03-10), vehicle and cyproterone acetate, respectively. Compounds and controls were administered subcutaneously daily for 28 days.
The results are plotted in FIG. 2 as average change in tumor volume relative to the start of treatment. Tumor volume was calculated according to the formula 0.5236(r1)^2(r2) where r1<r2.
CPA a well-known anti-androgen was used as control. Briefly 1×10^6 MiaPaca2 cells suspended in matrigel were subcutaneously (SC) injected into 6 week old male athymic nude mice. Tumors were measured every 4 days with a digital caliper. Tumor volume was calculated according to the formula: 0.5236(r1) 2(r2) where r1<r2. Treatment with CB-03-10 and controls compounds was initiated after the tumor had reached 50 mm^3. Compounds diluted in DMSO/2-hydroxypropyl b-cyclodextrin (vehicle) were injected subcutaneously (SC) daily (100 μL/mouse) at the concentration of 40 mg/Kg daily for 28 consecutive days.

[5] = In vitro metabolism in rat plasma; assay type: in vitro ADME; details: 37° C.; FIG. 13
Protocol: To obtain some insights on the metabolism of CB-03-10 in human and rat plasma, a specific assay was designed. Briefly the compound was incubated at different time in human and rat plasma at 37° C. After incubation the samples were tested for presence of the intact compound by liquid chromatography.

[6] = system: 22Rv1 prostate cancer cells; experiment: In vitro proliferation, 22Rv1; assay type: cell-based; details: Homo sapiens, Table III, read-out: in vitro proliferation IC50 (μ/M)
Protocol: as §1

[7] = Example 22, 40 mg/Kg SC daily for 28 days

`CCCCC(=O)O[C@]1(C(=O)COC(=O)CC)CC[C@H]2[C@@H]3CCC4=CC(=O)CC[C@]4(C)[C@H]3CC[C@@]21C` [CB-03-10, cortexolone 17α-valerate-21-propionate] showed an IC50 ([1]; Example 7, Experiment 1, read-out: IC50 (microM) on Stimulated PBMC) of 106 µM, an IC50 ([1]; Example 7, Experiment 2, read-out: IC50 (microM) on Stimulated PBMC) of 94 µM and an IC50 [2] of 9 µM. For the same compound, the IC50 ([3]; MIA PaCa-2, 72 h, MiaPaca2, 10 nM DHT, 3 days, Examples 3-4, Experiment 1) was 43 µM, the IC50 ([3]; MIA PaCa-2, MiaPaca2, Example 7, Experiment 1) was 34 µM and the “pancreatic tumor size increase relative to the initial size, during the treatment period” value ([4]; Example 22, 40 mg/Kg SC daily for 28 consecutive days) was “less than 5 fold”. For the same compound, the Median survival [4, 7] was 70 days, the “tumor size increase 14 days after treatment was stopped” value [4, 7] was 6 fold and the “pancreatic tumor size increase relative to the start of treatment” value ([4]; Examples 5 and 6, SC daily for 28 days, test compounds at high dose (approximately 1150 μM, 100 μL/mouse), Cyproterone Acetate treatment groups 7.4 and 37 mg/kg) was “less than 5 fold”. For the same compound, the “degradation in rat plasma” value [5] was “degraded more rapidly in rat compared to human plasma” and the IC50 [6] was 18 µM.
